Here are results for two substances from patent US20160074301A1, “ANTI-AGING SKIN CARE COMPOSITIONS AND REGIMENS” (The Procter & Gamble Company, priority 2014, published 2016).

One assay has as its system skin barrier formation. The assay is described as follows: Eigengene analysis, skin barrier formation, treated cultured human keratinocytes. It counts as cell-based.
The test system of assay [1] is "Clear and Detox" module genes. Nature of the assay: Eigengene of "Clear and Detox" co-expression module (FIG. 8). The note with it: cultured human keratinocytes.
For assay [2], the system named is "Repair and Rebuild" associated genes. The assay is described as follows: Eigengene of "Repair and Rebuild" co-expression module (FIG. 9). The settings on record: cultured human keratinocytes.

For the substance palmitoyl-lysine-threonine [Pal-KT], the “successful aging effect in skin barrier formation” value in the assay with skin barrier formation is reported as “Effects relating to successful aging were also identified”. Moreover, the “effect on "Clear and Detox" eigengene (FIG. 8)” value in assay [1] is given as “significantly up-regulates”.

In the case of “palmitoyl-lysine-threonine-threonine-lysine-serine [Pal-KTTKS]”, the “effect on "Repair and Rebuild" eigengene (FIG. 9)” value in assay [2] was “significantly up-regulate”.
